Experimental data as given in patent publication US11453671B2, “Pyrazolopyrimidine inhibitors of JAK kinases and uses thereof” (Genentech, Inc., priority 2020, dated 2022).

Assays:
[1] = Mouse lung tissue binding (equilibrium dialysis, RED); assay type: in vitro ADME; settings: for Lung tissue binding, %: Table 5, sulfone-sulfide analog pairs; for Mouse LTB %: mouse lung tissue binding, % bound (Table 3)
Description: Mouse lung tissue binding. A high bound fraction or percentage of JAK1/JAK2 inhibitors to lung tissue may be undesirable since it can reduce the amount of free drug available to inhibit JAK1 or JAK2.
(a) Tissue binding experiments were performed in triplicate (n=3) using a Single-Use RED Plate by following the standard protocol. Initially, individual drugs were spiked to tissue homogenates (pH 7.4) to achieve a final concentration of 1 μM, and then 300 μL of drug-tissue homogenate mixtures were transferred to the donor wells of the RED plate which was pre-loaded with 500 μL phosphate buffer saline (133 mM) on the receiver wells. The RED plate was sealed with a gas permeable membrane and placed in a shaking incubator (450 rpm, VWR Symphony™) for 6 hr at 37° C. with 5% CO2. At the end of incubation, aliquots of 30 μL samples were taken out of the RED device and matrix equalized with an equal volume of tissue homogenates or buffer, and resulting samples were then immediately quenched with ice cold acetonitrile (sample:acetonitrile 1:4) containing either propranolol or labetalol as an internal standard. After shaking for 15 min at 500 rpm on a Thermo Scientific Compact Digital MicroPlate Shaker, all samples were then subjected to centrifugation at 3700 rpm for 15 min (Beckman Coulter Allegra X 12R) to remove plasma protein. Subsequently, supernatants were collected and then diluted with an equal volume of water prior to LC-MS/MS analysis.
(b) In an alternate procedure, the extent of lung tissue binding of test compound to mouse lung homogenate may also be determined by equilibrium dialysis using Pierce RED (rapid equilibrium dialysis) devices (Fisher Scientific 89811 & 89809). A 10 mM solution of compound in DMSO was prepared and diluted to 1 mM with DMSO. An aliquot of this 1 mM (4 μL) was added into lung homogenate (dilution factor of 1:9, lung tissue:potassium phosphate buffer (0.05 M, pH 7.4)) to give a final compound incubation concentration of 5 μM with solvent accounting for 0.5% (v/v) of the final incubation volume.
For each assay, the percentage lung tissue bound was determined in triplicate. Lung homogenate (200 μL) was loaded into one side of a RED device insert, in triplicate, and 350 μL of potassium phosphate buffer was loaded into the other side. The RED devices were sealed and incubated for 4 hours at ca. 37° C. on an orbital shaker (˜150 rpm).
Following incubation, an aliquot of lung homogenate (8 μL) and an aliquot of dialysate (72 μL) were matrix matched (lung homogenate with 72 μL phosphate buffer, dialysate with 8 μL lung homogenate) ahead of analysis. Protein was precipitated from the samples with the addition of 160 μL of acetonitrile containing internal standard. The same matrix matching and protein precipitation procedure was performed on lung homogenate aliquots sampled at the start of the experiment (t=0 min samples), for the assessment of the mass balance. The quenched samples were centrifuged (4000 rpm, 30 min, 4° C.) and the resultant supernatant diluted with water (3:1 (v/v), supernatant: water) and the samples analysed for parent compound by liquid chromatography mass spectrometry assay.
The unbound fraction (fu) in lung homogenate was determined from the ratio of the dialysate to homogenate peak area, corrected to take into account the lung homogenate dilution (D) to enable an estimate of whole lung tissue binding using the following equations: Undiluted fu=(1/D)/[((1/Apparent fu)−1)+(1/D)] Corrected fraction bound (%)=(1-undiluted fu)*100

[2] = test system: JAK1: IL-13-stimulated STAT6 phosphorylation in BEAS-2B cells; test: P-STAT6 BEAS-2B+IL-13 Cell Assay; assay type: cell-based, human; settings: Homo sapiens, BEAS-2B, IL-13 stimulation, read-out: Cellular JAK1 PSTAT6 BEAS2B + IL13 IC50
Outline: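 BEAS-2B cells in BEGM preincubated 1 h at 37 °C with 10-point, 1:2 compound dilutions, then stimulated 15 min with IL-13 (250 ng/mL stock). Lysate pSTAT6 (Tyr641) captured on total-STAT6 antibody and read by MSD electrochemiluminescence; IC50 from four-parameter logistic fit.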

[3] = biological target: T1, recombinant human JAK1 kinase domain protein (Residues 854-1154) (Homo sapiens, UniProt P23458); test: JAK1 biochemical assay (microfluidic mobility shift, peptide phosphorylation); settings: 25 μM ATP, 1 nM total JAK1; read-out: Enzyme JAK1 Ki
T1 construct: human JAK1 kinase domain protein (Residues 854-1154); purchased Proteros Biostructures GmbH (Martinsried, Germany); host or cells: insect cells
T1 sequence (P23458 854-1154): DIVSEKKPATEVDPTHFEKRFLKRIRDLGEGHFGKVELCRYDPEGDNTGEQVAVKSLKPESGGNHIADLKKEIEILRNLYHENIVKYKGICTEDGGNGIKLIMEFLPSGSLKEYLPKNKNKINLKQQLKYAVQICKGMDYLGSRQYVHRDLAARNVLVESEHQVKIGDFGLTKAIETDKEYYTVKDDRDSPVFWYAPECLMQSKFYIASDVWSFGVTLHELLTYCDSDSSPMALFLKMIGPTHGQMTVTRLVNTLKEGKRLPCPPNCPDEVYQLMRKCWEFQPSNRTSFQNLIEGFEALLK
Description: JAK1 and JAK2 Biochemical Assays

SMILES: CS(=O)(=O)c1ccc(OC(F)F)c(-c2nn(CC#N)cc2NC(=O)c2cnn3cccnc23)c1 [Example 28, N-[1-(cyanomethyl)-3-[2-(difluoromethoxy)-5-methylsulfonyl-phenyl]pyrazol-4-yl]pyrazolo[1,5-a]pyrimidine-3-carboxamide]
- Lung tissue binding, % [1]: 70.8%
- Mouse LTB % [1]: 70.8%
- IC50 [2]: 9.5 nM
- Ki [3]: 0.24 nM

SMILES: CN(C)S(=O)(=O)c1ccc(OC(F)F)c(-c2nn(C)cc2NC(=O)c2cnn3cccnc23)c1 [Example 30, N-[3-[2-(difluoromethoxy)-5-(dimethylsulfamoyl)phenyl]-1-methyl-pyrazol-4-yl]pyrazolo[1,5-a]pyrimidine-3-carboxamide]
- Mouse LTB % [1]: 83.1%
- IC50 [2]: 11 nM
- Ki [3]: 0.22 nM

SMILES: Cn1cc(S(=O)(=O)c2ccc(OC(F)F)c(-c3nn(C)cc3NC(=O)c3cnn4cccnc34)c2)cn1 [Example 35, N-[3-[2-(difluoromethoxy)-5-(1-methylpyrazol-4-yl)sulfonyl-phenyl]-1-methyl-pyrazol-4-yl]pyrazolo[1,5-a]pyrimidine-3-carboxamide]
- Lung tissue binding, % [1]: 86.2%
- Mouse LTB % [1]: 86.2%
- IC50 [2]: 24 nM
- Ki [3]: 0.3 nM

SMILES: Cn1cc(NC(=O)c2cnn3cccnc23)c(-c2cc(S(=O)(=O)c3ccccc3)ccc2OC(F)F)n1 [Example 40, N-[3-[5-(benzenesulfonyl)-2-(difluoromethoxy)phenyl]-1-methyl-pyrazol-4-yl]pyrazolo[1,5-a]pyrimidine-3-carboxamide]
- Mouse LTB % [1]: 95.6%
- IC50 [2]: 24 nM
- Ki [3]: 0.21 nM

SMILES: Cn1cc(NC(=O)c2cnn3cccnc23)c(-c2cc(S(=O)(=O)c3cn[nH]c3)ccc2OC(F)F)n1 [Example 41, N-[3-[2-(difluoromethoxy)-5-(1H-pyrazol-4-ylsulfonyl)phenyl]-1-methyl-pyrazol-4-yl]pyrazolo[1,5-a]pyrimidine-3-carboxamide]
- Mouse LTB % [1]: 91.2%
- IC50 [2]: 37 nM
- Ki [3]: 0.18 nM

SMILES: Cn1cc(NC(=O)c2cnn3cccnc23)c(-c2cc(S(=O)(=O)c3ccn(C)c(=O)c3)ccc2OC(F)F)n1 [Example 44, N-[3-[2-(difluoromethoxy)-5-[(1-methyl-2-oxo-4-pyridyl)sulfonyl]phenyl]-1-methyl-pyrazol-4-yl]pyrazolo[1,5-a]pyrimidine-3-carboxamide]
- Mouse LTB % [1]: 86.5%
- IC50 [2]: 29 nM
- Ki [3]: 0.52 nM

SMILES: N#CCn1cc(NC(=O)c2cnn3cccnc23)c(-c2cc(S(=O)(=O)C3CC3)ccc2OC(F)F)n1 [Example 45, N-[1-(cyanomethyl)-3-[5-cyclopropylsulfonyl-2-(difluoromethoxy)phenyl]pyrazol-4-yl]pyrazolo[1,5-a]pyrimidine-3-carboxamide]
- Mouse LTB % [1]: 87.9%
- IC50 [2]: 35 nM
- Ki [3]: 0.71 nM

SMILES: Cn1cc(NC(=O)c2cnn3cccnc23)c(-c2cc3c(cc2OC(F)F)NCCS3(=O)=O)n1 [Example 46, N-[3-[6-(difluoromethoxy)-1,1-dioxo-3,4-dihydro-2H-1lambda6,4-benzothiazin-7-yl]-1-methyl-pyrazol-4-yl]pyrazolo[1,5-a]pyrimidine-3-carboxamide]
- Mouse LTB % [1]: 89.9%
- IC50 [2]: 49 nM
- Ki [3]: 0.26 nM

SMILES: CN(C)CCn1cc(S(=O)(=O)c2ccc(OC(F)F)c(-c3nn(C)cc3NC(=O)c3cnn4cccnc34)c2)cn1 [Example 49, N-[3-[2-(difluoromethoxy)-5-[1-[2-(dimethylamino)ethyl]pyrazol-4-yl]sulfonyl-phenyl]-1-methyl-pyrazol-4-yl]pyrazolo[1,5-a]pyrimidine-3-carboxamide]
- Mouse LTB % [1]: 84.4%
- IC50 [2]: 28 nM
- Ki [3]: 0.5 nM

SMILES: Cn1cc(NC(=O)c2cnn3cccnc23)c(-c2cc(S(=O)(=O)CCCO)ccc2OC(F)F)n1 [Example 63, N-[3-[2-(difluoromethoxy)-5-(3-hydroxypropylsulfonyl)phenyl]-1-methyl-pyrazol-4-yl]pyrazolo[1,5-a]pyrimidine-3-carboxamide]
- Mouse LTB % [1]: 80.5%
- IC50 [2]: 71 nM
- Ki [3]: 0.58 nM

SMILES: CN(CCO)S(=O)(=O)c1ccc(OC(F)F)c(-c2nn(C)cc2NC(=O)c2cnn3cccnc23)c1 [Example 73, N-(3-(2-(difluoromethoxy)-5-(N-(2-hydroxyethyl)-N-methylsulfamoyl)phenyl)-1-methyl-1H-pyrazol-4-yl)pyrazolo[1,5-a]pyrimidine-3-carboxamide]
- Mouse LTB % [1]: 81.8%
- IC50 [2]: 53 nM
- Ki [3]: 0.63 nM
